The subject of assay [1] is 17 highly resistant MRSA strains. The experiment in a line: In vitro activity: minimum inhibitory concentration (MIC) by the agar dilution method in Mueller Hinton agar, 17 highly resistant MRSA strains. In kind it is cell-based, Methicillin resistant Staphylococcus aureus (MRSA). Particulars: inoculum =10^5 CFU/spot. As for the experimental part: In vitro activity was determined by minimum inhibitory concentration (MIC) by the agar dilution method in Mueller Hinton agar inoculum =10^5 CFU/spot.

Assay [2] deals with MRSA. The following applies: alone; in words; cited from earlier work.
Assay [3] relates to β-lactamase. Particulars: in words; cited from earlier work.
Assay [4] relates to Gram-positive and Gram negative pathogens. Particulars: carbapenems alone; in words; cited from earlier work.

Converted amounts (≈) assume the structure as drawn.

In assay [1] (Table 1, substance alone), `O=C(CSc1ccc2ccccc2c1)N[C@@H]1C(=O)N2C(C(=O)O)=C(/C=C3\CCN(C4CC4)C3=O)CS[C@H]12.c1c[nH]cn1` [Ex. 12, (E)-(6R,7R)-3-(1-Cyclopropyl-2-oxo-pyrrolidin-3-ylidenemethyl)-7-[2-(naphthalen-2-ylsulfanyl)-acetylamino]-8-oxo-5-thia-1-aza-bicyclo[4.2.0]oct-2-ene-2-carboxylic acid imidazole salt (1:1)] displayed an MIC50 of 16 µg/mL and an MIC90 of over 16 µg/mL. In addition, in assay [1] (Table 2, substance alone), the MIC50 turned out to be 16 µg/mL and the MIC90 is over 16 µg/mL.
For `O=C(CSc1ccc2ccccc2c1)N[C@@H]1C(=O)N2C(C(=O)[O-])=C(/C=C3\CCN(c4ccc(O)cc4)C3=O)CS[C@H]12.[Na+]` [Ex. 13, (E)-(6R,7R)-3-[1-(4-Hydroxy-phenyl)-2-oxo-pyrrolidin-3-ylidenemethyl]-7-[2-(naphthalene-2-ylsulfanyl)-acetylamino]-8-oxo-5-thia-1-aza-bicyclo[4.2.0]oct-2-ene-2-carboxylic acid sodium salt (1:1)], in assay [1] (Table 1, substance alone), the MIC50 was 16 µg/mL and the MIC90 was over 16 µg/mL.
In assay [1] (Table 1, substance alone), `NS(=O)(=O)c1ccc(CN2CC/C(=C\C3=C(C(=O)O)N4C(=O)[C@@H](NC(=O)CSc5ccccc5)[C@H]4SC3)C2=O)cc1` [Ex. 14] came in with an MIC50 of 16 µg/mL (≈ 26 µM) and an MIC90 of over 16 µg/mL.
In assay [1] (Table 1, substance alone), `C[C@@H](O)[C@H]1C(=O)N2C(C(=O)O)=C(SCCN=CN)C[C@H]12` [Imipenem] came in with an MIC50 of over 16 µg/mL and an MIC90 of over 16 µg/mL. Also, the “activity against MRSA” value in assay [2] was “do not have good activity against MRSA”. For the same molecule, the β-lactamase inhibition result in assay [3] is listed as “good β-lactamase inhibitors”. Also, in assay [4], the “spectrum of antibacterial activity” value is on record as “broad spectrum of antibacterial activity”.
`C[C@@H](O)[C@H]1C(=O)N2C(C(=O)O)=C(S[C@@H]3CN[C@H](C(=O)N(C)C)C3)[C@H](C)[C@H]12` [Meropenem]: in assay [1] (Table 1, substance alone), the MIC50 is over 16 µg/mL and the MIC90 was over 16 µg/mL. Besides, the “activity against MRSA” value in assay [2] is “do not have good activity against MRSA”. Further, the β-lactamase inhibition result in assay [3] was “good β-lactamase inhibitors”. Besides, in assay [4], the “spectrum of antibacterial activity” value is listed as “broad spectrum of antibacterial activity”.
With `C[C@]1(/C=C\C#N)[C@H](C(=O)[O-])N2C(=O)C[C@H]2S1(=O)=O.[Na+]` [compound B, sodium-(Z)-(2S,3S ,R)-3-(2-cyanoethenyl)-3-methyl-4,4,7-trioxo-4-thia-1-aza-bicyclo[3.2.0]heptane-2-carboxylate, reference compound], in assay [1] (Table 2, substance alone), the MIC50 is over 16 µg/mL, the MIC90 was over 16 µg/mL and the “range of MIC” value is over 16 µg/mL.

The record behind these values is US6150350A, “Antimicrobial compositions” (Hoffman-la Roche Inc., priority 1997, dated 2000).
